Data published in patent US20220144815A1, “1,3,4-OXADIAZOLES AND THEIR DERIVATIVES AS NEW ANTIFUNGAL AGENTS” (Bayer Aktiengesellschaft, priority 2018, published 2022).
Like-named read-outs stand apart in the source and are kept apart here.

Tests used:
[1] = Log P by HPLC on reversed phase columns, method [a] (EEC directive 79/831 Annex V.A8); type: physicochemical; conditions: reversed phase HPLC column, read-out: logP
Summary of the method: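 Reversed-phase HPLC with LC-UV detection per EEC directive 79/831 Annex V.A8, acidic eluent of 0.1% formic acid in water and acetonitrile, linear gradient 10% to 95% acetonitrile. Log P derived from retention times, calibrated against straight-chain alkan-2-ones (C3–C16) by linear interpolation.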

[2] = system: Colletotrichum lindemuthianum; assay: Example B: in vitro cell test, spore germination and mycelium growth in liquid culture; type: cell-based; conditions: 144 h, 20 ppm of tested compound, 6 days incubation, read-out: efficacy (inhibition of fungal growth)
Procedure: • Solvent: dimethyl sulfoxide Culture medium: 14.6 g anhydrous D-glucose (VWR), • 7.1 g mycological peptone (Oxoid), • 1.4 g granulated yeast extract (Merck), QSP 1 liter Inoculum: spore suspension The tested compounds were solubilized in dimethyl sulfoxide and the solution used to prepare the required range of concentrations. The final concentration of dimethyl sulfoxide used in the assay was ≤1%. A spore suspension of Colletotrichum lindemuthianum was prepared and diluted to the desired spore density. The compounds were evaluated for their ability to inhibit spore germination and mycelium growth in liquid culture assay. The compounds were added in the desired concentration to the culture medium with spores. After 6 days incubation, fungi-toxicity of compounds was determined by spectrometric measurement of mycelium growth. Inhibition of fungal growth was determined by comparing the absorbance values in wells containing the tested compounds with the absorbance in control wells without tested compounds.

Alternaria brassicae = assay: Example E: in vivo preventive test (cabbage); conditions: 144 h, 500 ppm of tested compound, preventive spray, evaluated 6 days after inoculation, read-out: efficacy
Procedure: Solvent: 5% by volume of dimethyl sulfoxide • 10% by volume of acetone Emulsifier: 1 μL of Tween® 80 per mg of active ingredient The tested compounds were made soluble and homogenized in a mixture of Dimethyl sulfoxide/Acetone/Tween® 80 and then diluted in water to the desired concentration. The young plants of cabbage were treated by spraying the tested compound prepared as described above. Control plants were treated only with an aqueous solution of Acetone/Dimethyl sulfoxide/Tween® 80. After 24 hours, the plants were contaminated by spraying the leaves with an aqueous suspension of Alternaria brassicae spores. The contaminated cabbage plants were incubated for 6 days at 20° C. and at 100% relative humidity. The test was evaluated 6 days after the inoculation. 0% means an efficacy which corresponds to that of the control plants while an efficacy of 100% means that no disease was observed.

Puccinia recondita = assay: Example D: in vivo preventive test (brown rust on wheat); conditions: 264 h, 500 ppm of tested compound, preventive spray, evaluated 11 days after inoculation, read-out: efficacy
Procedure: Solvent: 5% by volume of dimethyl sulfoxide • 10% by volume of acetone Emulsifier: 1 μL of Tween® 80 per mg of active ingredient The tested compounds were made soluble and homogenized in a mixture of dimethyl sulfoxide/acetone/Tween® 80 and then diluted in water to the desired concentration. The young plants of wheat were treated by spraying the tested compound prepared as described above. Control plants were treated only with an aqueous solution of acetone/dimethyl sulfoxide/Tween® 80. After 24 hours, the plants were contaminated by spraying the leaves with an aqueous suspension of Puccinia recondita spores. The contaminated wheat plants were incubated for 24 hours at 20° C. and at 100% relative humidity and then for 10 days at 20° C. and at 70-80% relative humidity. The test was evaluated 11 days after the inoculation. 0% means an efficacy which corresponds to that of the control plants while an efficacy of 100% means that no disease was observed.

Phakopsora pachyrhizi = assay: Example F: in vivo preventive test (soybeans), DMSO/acetone/Tween 80; conditions: 288 h, 500 ppm of tested compound, preventive spray, soybean, evaluated 12 days after inoculation, read-out: efficacy
Procedure: Solvent: 5% by volume of dimethyl sulfoxide • 10% by volume of acetone
Emulsifier: 1 μL of Tween® 80 per mg of active ingredient
The tested compounds were made soluble and homogenized in a mixture of dimethyl sulfoxide/acetone/Tween® 80 and then diluted in water to the desired concentration.
The young plants of wheat were treated by spraying the tested compound prepared as described above. Control plants were treated only with an aqueous solution of acetone/dimethyl sulfoxide/Tween® 80.
After 24 hours, the plants were contaminated by spraying the leaves with an aqueous suspension of Phakospora pachyrhizi spores. The contaminated soybean plants were incubated for 24 hours at 24° C. and at 100% relative humidity and then for 11 days at 24° C. and at 70-80% relative humidity.
The test was evaluated 12 days after the inoculation. 0% means an efficacy which corresponds to that of the control plants while an efficacy of 100% means that no disease was observed.

[3] = log P determined according to method [a] (HPLC on reversed phase columns)
[4] = method [a], HPLC on reversed phase columns

Compound | pest or weed control at 500 µg/mL (Alternaria brassicae) | pest or weed control at 500 µg/mL (Phakopsora pachyrhizi) | further results
Fc1ccccc1Nc1ncc(-c2nnc(C(F)(F)Cl)o2)cn1 [I.131, 5-{5-[chloro(difluoro)methyl]-1,3,4-oxadiazol-2-yl}-N-(2-fluorophenyl)pyrimidin-2-amine] | 90 to 100% |  | chromatographic logP [1, 3]: 3.26; inhibition of growth at 20 µg/mL [2]: 90 to 100%
COC(=O)c1ccc(C2(Nc3ncc(-c4nnc(C(F)F)o4)cn3)CC2)cc1 [I.180, methyl 4-[1-({5-[5-(difluoromethyl)-1,3,4-oxadiazol-2-yl]pyrimidin-2-yl}amino)cyclopropyl]benzoate] |  |  | chromatographic logP [1, 4]: 2.51; pest or weed control at 500 µg/mL (Puccinia recondita): 70 to 79%
FC(F)c1nnc(-c2cnc(NC3(c4ccccn4)CC3)nc2)o1 [I.121, 5-[5-(difluoromethyl)-1,3,4-oxadiazol-2-yl]-N-[1-(pyridin-2-yl)cyclopropyl]pyrimidin-2-amine] |  | 90 to 100% | chromatographic logP [1, 3]: 0.93; pest or weed control at 500 µg/mL (Puccinia recondita): 70 to 79%
Fc1cccc(Nc2ncc(-c3nnc(C(F)F)o3)cn2)c1 [I.094, 5-[5-(difluoromethyl)-1,3,4-oxadiazol-2-yl]-N-(3-fluorophenyl)pyrimidin-2-amine] | 90 to 100% |  | 
FC(F)c1nnc(-c2ccc(-n3ccnn3)cc2)o1 [I.005, 2-(difluoromethyl)-5-[4-(1H-1,2,3-triazol-1-yl)phenyl]-1,3,4-oxadiazole] | 90 to 100% |  | 
FC(F)c1nnc(-c2ccc(N3CCCCC3)nc2)o1 [I.040, 5-[5-(difluoromethyl)-1,3,4-oxadiazol-2-yl]-2-(piperidin-1-yl)pyridine] | 70 to 79% |  | 
FC(F)c1nnc(-c2ccc(Br)cc2)o1 [I.009, 2-(4-bromophenyl)-5-(difluoromethyl)-1,3,4-oxadiazole] |  | 70 to 79% | 
Fc1ccccc1Nc1ncc(-c2nnc(C(F)F)o2)cn1 [I.093, 5-[5-(difluoromethyl)-1,3,4-oxadiazol-2-yl]-N-(2-fluorophenyl)pyrimidin-2-amine] |  | 90 to 100% | pest or weed control at 500 µg/mL (Puccinia recondita): 90 to 100%
Fc1ccccc1C1(Nc2ncc(-c3nnc(C(F)F)o3)cn2)CCCC1 [I.171, 5-[5-(difluoromethyl)-1,3,4-oxadiazol-2-yl]-N-[1-(2-fluorophenyl)cyclopentyl]pyrimidin-2-amine] | 80 to 89% | 70 to 79% | chromatographic logP [1, 4]: 3.74; inhibition of growth at 20 µg/mL [2]: 70 to 79%
FC(F)c1nnc(-c2ccc(COc3ccc(Cl)cc3)cc2)o1 [I.024, 2-{4-[(4-chlorophenoxy)methyl]phenyl}-5-(difluoromethyl)-1,3,4-oxadiazole] |  | 90 to 100% | 
FC(F)c1nnc(-c2ccc(Nc3ncccn3)cc2)o1 [I.013, N-{4-[5-(difluoromethyl)-1,3,4-oxadiazol-2-yl]phenyl}pyrimidin-2-amine] | 90 to 100% |  | inhibition of growth at 20 µg/mL [2]: 90 to 100%
Fc1ccccc1Nc1ccc(-c2nnc(C(F)F)o2)cc1 [I.017, N-{4-[5-(difluoromethyl)-1,3,4-oxadiazol-2-yl]phenyl}-2-fluoroaniline] | 80 to 89% |  | inhibition of growth at 20 µg/mL [2]: 90 to 100%
CON(c1ncc(-c2nnc(C(F)F)o2)cn1)C(C)c1ccccc1 (racemic) [I.147, N-{5-[5-(difluoromethyl)-1,3,4-oxadiazol-2-yl]pyrimidin-2-yl}-O-methyl-N-[(1RS)-1-phenylethyl]hydroxylamine] | 90 to 100% | 80 to 89% | chromatographic logP [1, 3]: 3.37
FC(F)c1nnc(-c2ccc(Cn3ccnc3)cc2)o1 [I.010, 2-(difluoromethyl)-5-[4-(1H-imidazol-1-ylmethyl)phenyl]-1,3,4-oxadiazole] | 90 to 100% |  | 
Fc1cccc(C2(Nc3ncc(-c4nnc(C(F)F)o4)cn3)CCCC2)c1 [I.172, 5-[5-(difluoromethyl)-1,3,4-oxadiazol-2-yl]-N-[1-(3-fluorophenyl)cyclopentyl]pyrimidin-2-amine] | 80 to 89% |  | chromatographic logP [1, 4]: 3.6; inhibition of growth at 20 µg/mL [2]: 70 to 79%
CN(c1ccccc1)c1ncc(-c2nnc(C(F)F)o2)cn1 [I.087, 5-[5-(difluoromethyl)-1,3,4-oxadiazol-2-yl]-N-methyl-N-phenylpyrimidin-2-amine] | 90 to 100% |  | 
CN(C(=O)c1ccc(-c2nnc(C(F)(F)F)o2)cc1)c1ccccc1 [I.026, N-methyl-N-phenyl-4-[5-(trifluoromethyl)-1,3,4-oxadiazol-2-yl]benzamide] |  |  | pest or weed control at 500 µg/mL (Puccinia recondita): 80 to 89%
FC(F)c1nnc(-c2cnc(NCc3ccccc3)nc2)o1 [I.088, N-benzyl-5-[5-(difluoromethyl)-1,3,4-oxadiazol-2-yl]pyrimidin-2-amine] |  | 90 to 100% | 
FC(F)c1nnc(-c2cnc(-c3ccsc3)nc2)o1 [I.072, 5-[5-(difluoromethyl)-1,3,4-oxadiazol-2-yl]-2-(3-thienyl)pyrimidine] | 70 to 79% |  | 
FC(F)c1nnc(-c2cnc(CC3CCCCC3)nc2)o1 [I.083, 2-(cyclohexylmethyl)-5-[5-(difluoromethyl)-1,3,4-oxadiazol-2-yl]pyrimidine] |  | 90 to 100% | 
Nc1ncc(-c2nnc(C(F)F)o2)cn1 [I.059, 5-[5-(difluoromethyl)-1,3,4-oxadiazol-2-yl]pyrimidin-2-amine] |  | 90 to 100% | 
COCCNc1ncc(-c2nnc(C(F)F)o2)cn1 [I.068, 5-[5-(difluoromethyl)-1,3,4-oxadiazol-2-yl]-N-(2-methoxyethyl)pyrimidin-2-amine] | 70 to 79% |  | inhibition of growth at 20 µg/mL [2]: 90 to 100%
FC(F)c1nnc(-c2ccc(-c3ccccc3)cc2)o1 [I.007, 2-([biphenyl]-4-yl)-5-(difluoromethyl)-1,3,4-oxadiazole] | 80 to 89% |  | 
FC(F)c1nnc(-c2cnc(NCC3CCOCC3)nc2)o1 [I.105, 5-[5-(difluoromethyl)-1,3,4-oxadiazol-2-yl]-N-(tetrahydro-2H-pyran-4-ylmethyl)pyrimidin-2-amine] | 80 to 89% |  | chromatographic logP [1, 3]: 1.73
CSc1ccc(-c2nnc(C(F)F)o2)cc1 [I.002, 2-(difluoromethyl)-5-[4-(methylsulfanyl)phenyl]-1,3,4-oxadiazole] | 70 to 79% |  | 
CN(Nc1ncc(-c2nnc(C(F)F)o2)cn1)c1ccccc1 [I.108, 5-[5-(difluoromethyl)-1,3,4-oxadiazol-2-yl]-2-(2-methyl-2-phenylhydrazino)pyrimidine] |  |  | chromatographic logP [1, 3]: 2.23; pest or weed control at 500 µg/mL (Puccinia recondita): 70 to 79%
FC(F)c1nnc(-c2ccc(-c3nnc(C(F)F)o3)cc2)o1 [I.019, 2,2′-(1,4-phenylene)bis[5-(difluoromethyl)-1,3,4-oxadiazole]] |  | 90 to 100% | 
ON(Cc1ccccc1)c1ncc(-c2nnc(C(F)F)o2)cn1 [I.110, N-benzyl-5-[5-(difluoromethyl)-1,3,4-oxadiazol-2-yl]-N-hydroxypyrimidin-2-amine] | 90 to 100% | 90 to 100% | chromatographic logP [1, 3]: 2.23; inhibition of growth at 20 µg/mL [2]: 90 to 100%
Fc1ccc(Cc2ncc(-c3nnc(C(F)F)o3)cn2)c(F)c1 [I.115, 2-(2,4-difluorobenzyl)-5-[5-(difluoromethyl)-1,3,4-oxadiazol-2-yl]pyrimidine] |  | 70 to 79% | chromatographic logP [1, 3]: 2.7
